Measured values: PubChem BioAssay (NCI)
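Five compound concentrations were applied to cells in 96-well plates for 48 hours; endpoints were derived by simple linear interpolation of the resulting dose-response curve. TGI is the concentration that stops growth completely.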 The source made the active and inactive calls. Cut-off read from the data, not from the text of the source: active = GI50 below about 0.43 µM; inactive = the rest.

Columns and labels:
Assay in all cases: DTP human tumour cell line panel, 48 h
NCI-H522 lung = test system: NCI-H522 lung
A498 renal = test system: A498 renal
MALME-3M melanoma = test system: MALME-3M melanoma
U251 CNS = test system: U251 CNS
HT29 colon = test system: HT29 colon
IGROV1 ovarian = test system: IGROV1 ovarian
OVCAR-4 ovarian = test system: OVCAR-4 ovarian
RXF-631 renal = test system: RXF-631 renal
KM12 colon = test system: KM12 colon
LXFL 529 NSCLC = test system: LXFL 529 NSCLC
ACHN renal = test system: ACHN renal
HCC-2998 colon = test system: HCC-2998 colon
OVCAR-5 ovarian = test system: OVCAR-5 ovarian
MOLT-4 leukemia = test system: MOLT-4 leukemia
COLO 205 colon = test system: COLO 205 colon
NCI-H23 lung = test system: NCI-H23 lung
SF-268 CNS = test system: SF-268 CNS
XF 498 CNS = test system: XF 498 CNS
SF-295 CNS = test system: SF-295 CNS
HL-60(TB) leukemia = test system: HL-60(TB) leukemia
UACC-257 melanoma = test system: UACC-257 melanoma
DLD-1 colon = test system: DLD-1 colon
CAKI-1 renal = test system: CAKI-1 renal
RPMI-8226 leukemia = test system: RPMI-8226 leukemia
SK-OV-3 ovarian = test system: SK-OV-3 ovarian
KM20L2 colon = test system: KM20L2 colon
DMS 273 small cell lung = test system: DMS 273 small cell lung
NCI-H460 lung = test system: NCI-H460 lung
DMS 114 small cell lung = test system: DMS 114 small cell lung
UACC-62 melanoma = test system: UACC-62 melanoma
M19-MEL melanoma = test system: M19-MEL melanoma
HOP-92 NSCLC = test system: HOP-92 NSCLC
SK-MEL-2 melanoma = test system: SK-MEL-2 melanoma
CCRF-CEM leukemia = test system: CCRF-CEM leukemia
LOX IMVI melanoma = test system: LOX IMVI melanoma
786-0 renal = test system: 786-0 renal
SNB-78 CNS = test system: SNB-78 CNS
M14 melanoma = test system: M14 melanoma
HCT-15 colon = test system: HCT-15 colon
SN12C renal = test system: SN12C renal
HOP-62 NSCLC = test system: HOP-62 NSCLC
OVCAR-3 ovarian = test system: OVCAR-3 ovarian
K-562 leukemia = test system: K-562 leukemia
SW-620 colon = test system: SW-620 colon
SK-MEL-5 melanoma = test system: SK-MEL-5 melanoma
EKVX NSCLC = test system: EKVX NSCLC
SNB-75 CNS = test system: SNB-75 CNS
SF-539 CNS = test system: SF-539 CNS
OVCAR-8 ovarian = test system: OVCAR-8 ovarian
SK-MEL-28 melanoma = test system: SK-MEL-28 melanoma
UO-31 renal = test system: UO-31 renal
HOP-18 NSCLC = test system: HOP-18 NSCLC
TK-10 renal = test system: TK-10 renal
RXF 393 renal = test system: RXF 393 renal
A549 NSCLC = test system: A549 NSCLC
SR leukemia = test system: SR leukemia
NCI/ADR-RES ovarian = test system: NCI/ADR-RES ovarian
NCI-H226 lung = test system: NCI-H226 lung
SNB-19 CNS = test system: SNB-19 CNS

## CCCc1onc(CCC(=O)N(Cc2ccccc2)Cc2ccccc2)c1CC
NCI-H522 lung
  TGI: > 100 µM
A498 renal
  TGI: > 100 µM
MALME-3M melanoma
  TGI: > 100 µM
U251 CNS
  TGI: > 100 µM
HT29 colon
  TGI: > 100 µM
IGROV1 ovarian
  TGI: > 100 µM
OVCAR-4 ovarian
  TGI: > 100 µM
RXF-631 renal
  TGI: > 100 µM
KM12 colon
  TGI: > 100 µM
LXFL 529 NSCLC
  TGI: > 100 µM
ACHN renal
  TGI: > 100 µM
HCC-2998 colon
  TGI: > 100 µM
OVCAR-5 ovarian
  TGI: > 100 µM
MOLT-4 leukemia
  TGI: > 100 µM
COLO 205 colon
  TGI: > 100 µM
NCI-H23 lung
  TGI: > 100 µM
SF-268 CNS
  TGI: > 100 µM
XF 498 CNS
  TGI: > 100 µM
SF-295 CNS
  TGI: > 100 µM
HL-60(TB) leukemia
  TGI: > 100 µM
UACC-257 melanoma
  TGI: > 100 µM
DLD-1 colon
  TGI: > 100 µM
CAKI-1 renal
  TGI: > 100 µM
RPMI-8226 leukemia
  TGI: > 100 µM
SK-OV-3 ovarian
  TGI: > 100 µM
KM20L2 colon
  TGI: > 100 µM
DMS 273 small cell lung
  TGI: > 100 µM
NCI-H460 lung
  TGI: > 100 µM
DMS 114 small cell lung
  TGI: > 100 µM
UACC-62 melanoma
  TGI: > 100 µM
M19-MEL melanoma
  TGI: > 100 µM
HOP-92 NSCLC
  TGI: > 100 µM
SK-MEL-2 melanoma
  TGI: > 100 µM
CCRF-CEM leukemia
  TGI: > 100 µM
LOX IMVI melanoma
  TGI: > 100 µM
786-0 renal
  TGI: > 100 µM
SNB-78 CNS
  TGI: > 100 µM
M14 melanoma
  TGI: > 100 µM
HCT-15 colon
  TGI: > 100 µM
SN12C renal
  TGI: > 100 µM
HOP-62 NSCLC
  TGI: > 100 µM
OVCAR-3 ovarian
  TGI: > 100 µM
K-562 leukemia
  TGI: > 100 µM

## O=C1/C(=C\c2ccccc2)C2/C(=C\c3ccccc3)C(=O)/C(=C\c3ccccc3)C2/C1=C\c1ccccc1 (stereo unspecified)
NCI-H522 lung
  TGI: 2.09 µM
MALME-3M melanoma
  TGI: 4.36 µM
SW-620 colon
  TGI: 7.26 µM
U251 CNS
  TGI: 2.43 µM
HT29 colon
  TGI: 3.7 µM
IGROV1 ovarian
  TGI: 4.8 µM
OVCAR-4 ovarian
  TGI: 3.83 µM
RXF-631 renal
  TGI: 9.68 µM
SK-MEL-5 melanoma
  TGI: 4.7 µM
KM12 colon
  TGI: 3.54 µM
LXFL 529 NSCLC
  TGI: 24.9 µM
ACHN renal
  TGI: 5.94 µM
HCC-2998 colon
  TGI: 2.59 µM
OVCAR-5 ovarian
  TGI: 2.82 µM
COLO 205 colon
  TGI: 2.94 µM
NCI-H23 lung
  TGI: 3.78 µM
EKVX NSCLC
  TGI: 52.7 µM
SF-268 CNS
  TGI: 18.5 µM
SF-295 CNS
  TGI: 5.71 µM
HL-60(TB) leukemia
  TGI: 4.5 µM
UACC-257 melanoma
  TGI: 4.2 µM
SNB-75 CNS
  TGI: 71.2 µM
DLD-1 colon
  TGI: 2.85 µM
CAKI-1 renal
  TGI: 8.17 µM
SF-539 CNS
  TGI: 6.81 µM
SK-OV-3 ovarian
  TGI: 46.9 µM
KM20L2 colon
  TGI: 3.55 µM
DMS 273 small cell lung
  TGI: 3.17 µM
NCI-H460 lung
  TGI: 4.2 µM
OVCAR-8 ovarian
  TGI: 21.2 µM
SK-MEL-28 melanoma
  TGI: 8.75 µM
UO-31 renal
  TGI: 3.32 µM
DMS 114 small cell lung
  TGI: 5.67 µM
HOP-18 NSCLC
  TGI: > 100 µM
UACC-62 melanoma
  TGI: 4.24 µM
M19-MEL melanoma
  TGI: 3.47 µM
HOP-92 NSCLC
  TGI: 4.4 µM
SK-MEL-2 melanoma
  TGI: 3.62 µM
CCRF-CEM leukemia
  TGI: 4.35 µM
TK-10 renal
  TGI: 19.5 µM
LOX IMVI melanoma
  TGI: 1.75 µM
786-0 renal
  TGI: 2.78 µM
RXF 393 renal
  TGI: 3.15 µM
M14 melanoma
  TGI: 3.44 µM
SN12C renal
  TGI: 4.89 µM
HOP-62 NSCLC
  TGI: 5.03 µM
OVCAR-3 ovarian
  TGI: 4.92 µM
K-562 leukemia
  TGI: > 100 µM
A549 NSCLC
  TGI: 7 µM

## CC(C)=C1C(=O)C[C@@]2(C)C[C@H]3OC3(C)CC/C=C(/C)CCC12 (stereo partly specified)
SR leukemia
  outcome: inactive
NCI-H522 lung
  outcome: inactive
NCI/ADR-RES ovarian
  TGI: 95 µM
MALME-3M melanoma
  outcome: inactive
SW-620 colon
  outcome: inactive
U251 CNS
  outcome: inactive
HT29 colon
  outcome: inactive
IGROV1 ovarian
  outcome: inactive
OVCAR-4 ovarian
  outcome: inactive
RXF-631 renal
  outcome: inactive
KM12 colon
  outcome: inactive
LXFL 529 NSCLC
  outcome: inactive
NCI-H226 lung
  outcome: inactive
ACHN renal
  outcome: inactive
HCC-2998 colon
  outcome: inactive
OVCAR-5 ovarian
  outcome: inactive
MOLT-4 leukemia
  outcome: inactive
COLO 205 colon
  outcome: inactive
NCI-H23 lung
  outcome: inactive
EKVX NSCLC
  outcome: inactive
SF-268 CNS
  outcome: inactive
XF 498 CNS
  outcome: inactive
SF-295 CNS
  outcome: inactive
HL-60(TB) leukemia
  TGI: 49.2 µM
  outcome: inactive
UACC-257 melanoma
  outcome: inactive
SNB-75 CNS
  outcome: inactive
DLD-1 colon
  outcome: inactive
CAKI-1 renal
  outcome: inactive
RPMI-8226 leukemia
  outcome: inactive
SF-539 CNS
  outcome: inactive
SK-OV-3 ovarian
  outcome: inactive
KM20L2 colon
  outcome: inactive
DMS 273 small cell lung
  outcome: inactive
NCI-H460 lung
  outcome: inactive
OVCAR-8 ovarian
  outcome: inactive
UO-31 renal
  outcome: inactive
DMS 114 small cell lung
  outcome: inactive
UACC-62 melanoma
  outcome: inactive
HOP-92 NSCLC
  outcome: inactive
SK-MEL-2 melanoma
  outcome: inactive
CCRF-CEM leukemia
  outcome: inactive
LOX IMVI melanoma
  outcome: inactive
786-0 renal
  outcome: inactive
SNB-78 CNS
  outcome: inactive
RXF 393 renal
  outcome: inactive
M14 melanoma
  outcome: inactive
SNB-19 CNS
  outcome: inactive
HCT-15 colon
  outcome: inactive
SN12C renal
  outcome: inactive
HOP-62 NSCLC
  outcome: inactive
OVCAR-3 ovarian
  outcome: inactive
K-562 leukemia
  outcome: inactive
A549 NSCLC
  outcome: inactive
